Here are results for one compound from article PMC11385386 (Nature Communications, 2024).

In the test the target is IDH1^R132H (Homo sapiens, UniProt O75874, R132H). In words: Affinity of IDH1 R132H for NADPH. The class given is binding.

Molecules are shown by their SMILES. pKd: −log10 of the molar value.

Sequence of IDH1^R132H (O75874 whole entry R132H): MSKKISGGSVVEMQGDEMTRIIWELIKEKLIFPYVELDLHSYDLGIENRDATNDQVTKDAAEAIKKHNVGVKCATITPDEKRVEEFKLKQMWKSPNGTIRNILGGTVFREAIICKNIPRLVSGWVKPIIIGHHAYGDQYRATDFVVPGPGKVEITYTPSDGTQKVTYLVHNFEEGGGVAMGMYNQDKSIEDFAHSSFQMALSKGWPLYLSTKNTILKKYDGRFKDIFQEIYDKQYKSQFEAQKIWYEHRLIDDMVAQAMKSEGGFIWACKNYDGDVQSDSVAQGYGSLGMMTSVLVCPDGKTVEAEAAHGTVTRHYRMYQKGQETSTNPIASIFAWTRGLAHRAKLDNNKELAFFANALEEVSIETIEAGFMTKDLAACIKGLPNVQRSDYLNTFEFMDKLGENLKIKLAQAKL

Turning to `NC(=O)C1=CN([C@@H]2O[C@H](COP(=O)(O)OP(=O)(O)OC[C@H]3O[C@@H](n4cnc5c(N)ncnc54)[C@H](OP(=O)(O)O)[C@@H]3O)[C@@H](O)[C@H]2O)C=CC1` [NADPH], the pKd (as a rule, the Kd on a negative log10 scale, so that one unit is a factor of ten) was roughly 7.30.
